Tests used:
[1] = system: LN229 MGMT−/MMR− intracranial tumors; test: Anti-cancer activity in mice having tumors formed from LN-229 human brain glioblastoma cells; assay type: in vivo, mouse; conditions: 25 mg/kg PO for 5 days; compared with vehicle, TMZ, or KL50
Protocol: Mice bearing tumors formed from LN-229 human brain glioblastoma cells were prepared as follows: LN229 MGMT−/MMR− cells stably expressing firefly luciferase (lentivirus-plasmids from Cellomics Technology; PLV-10003) were injected intracranially into mice using a stereotactic injector. For this procedure, 1.5 million LN229 MGMT−/MMR− cells in 5 μl PBS were injected into the brain of the mice subjects, and then the mice were imaged weekly using the IVIS Spectrum In Vivo Imaging System (PerkinElmer) according to the manufacturer's protocol. Images were taken on a weekly basis and acquired 10 min post intraperitoneal injection with d-luciferin (150 mg/kg of animal mass). Tumors were allowed to grow to an average of 1.0×10^8 RLU before randomization of the mice.
Treatments using study compounds were administered PO (oral gavage), with 10% cyclodextrin vehicle control or study compound, according to the indicated treatment regimen. Animals were observed daily, with weekly tumor imaging and body weight measurements. Quantification of BLI flux (photons/sec) was made through the identification of a region of interest (ROI) for each tumor.
Study compounds were administered to mice at a dose of 25 mg/kg PO for 5 days; thereafter no further study compound was administered to the mice.
Statistical analysis of data was performed using GraphPad Prism software. Data was presented as mean±SEM. […]

[2] = system: BJ fibroblast cells; test: Short-term cell viability in normal fibroblasts; assay type: cell-based, human; conditions: KL-50 compared with TMZ
Protocol: Cell Culture. LN229 MGMT− and MGMT+ cell lines were a gift from B. Kaina (Johannes Gutenberg University Mainz, Mainz, Germany) and grown in DMEM with 10% FBS (Gibco). DLD1 BRCA2+/− and BRCA2−/− cell lines (Horizon Discovery, Cambridge, UK) were grown in RPMI 1640 with 10% FBS. HCT116 MLH1−/− and HCT116+Chr3 cell lines were a gift from T. Kunkel (National Institute of Environmental Health Sciences, Durham, NC) and grown in DMEM with 10% FBS, with […] G418 (Sigma) for HCT116+Chr3 cells. PD20 cell lines complemented with empty vector (+EV), wildtype FANCD2 (+FD2), or K561R ubiquitination-mutant FANCD2 (+KR) were a gift from G. Kupfer and P. Glazer (Yale University, New Haven, CT) and growth in DMEM with 10% FBS. PEO1 and PEO4 cell lines were a gift from T. Taniguchi (Fred Hutchinson Cancer Research Center, Seattle, WA) and were grown in DMEM with 10% FBS. BJ fibroblasts (normal human fibroblast cells) were purchased from ATCC (CRL-2522) and grown in DMEM with 10% FBS. […] All human cell lines were validated by short tandem repeat profiling (excluding BJ fibroblasts which were used within 6 passages of receiving from ATCC) and confirmed negative for mycoplasma by quantitative RT-PCR.
Short-term Cell Viability Assay. […] Cells were imaged on a Cytation 3 imaging reader (BioTek) and quantified using CellProfiler software.

[3] = system: linearized pUC19 plasmid DNA; test: In vitro DNA cross-linking assay; assay type: biochemical; conditions: 100 μM, 6-36 hours
Protocol: Plasmid Linearization Assay. To set up the linearization reactions, 20 units of EcoRI-HF (New England Biolabs) was mixed with 20 μg 2686 bp pUC19 vector DNA in CutSmart buffer (New England Biolabs), pH 7.9, in a total volume of 1000 μL for 30 min at 37° C. The CutSmart buffer contains 50 mM potassium acetate, 20 mM Tris acetate, 10 mM magnesium acetate, and 100 μg/mL BSA. The reacted DNA was then purified using PCR cleanup kit and quantified using the NanoDrop One (Thermo Fisher). The DNA was then stored at −20° C. before use in in vitro DNA cross-linking assays or melting temperature analysis.
In Vitro DNA Cross-linking Assays. Linearized pUC19 DNA, prepared as described above, was used for in vitro DNA cross-linking assays. For each condition, 200 ng of linearized pUC19 DNA (15.4 μM base pairs) was incubated with the indicated concentration of drug in 20 μL. Drug stock concentrations were made in DMSO such that each reaction contained a fixed 5% DMSO concentration. Reactions were conducted in 100 mM Tris buffer (pH 7.4). Cisplatin (Sigma) and DMSO vehicle were used as positive and negative controls, respectively. Reactions were conducted between 3-96 h at 37° C. The DNA was stored at −80° C. until electrophoretic analysis. For gel electrophoresis, DNA concentration was preadjusted to 10 ng/μL. […]

| Compound | duration of survival (in words) [1] | cytotoxicity in normal human fibroblast cells (in words) [2] | ICLs in plasmid DNA (in words) [3] |
| --- | --- | --- | --- |
| CNC(=O)c1ncn2c(=O)n(CCF)nnc12 [Compound I-1, 3-(2-fluoroethyl)-N-methyl-4-oxo-3H,4H-imidazo[4,3-d][1,2,3,5]tetrazine-8-carboxamide] | longer duration of survival |  |  |
| NC(=O)c1ncn2c(=O)n(CCF)nnc12 [KL-50, 3-(2-fluoroethyl)-4-oxo-3H,4H-imidazo[4,3-d][1,2,3,5]tetrazine-8-carboxamide] |  | no increase in toxicity | possessed ICLs, with delayed rates of formation relative to 12b |
